Common to all, as to type: cell-based
Test [1] deals with Botrytis cinerea. As to the kind of experiment: Botrytis cinerea (gray mould), PDB microtiter plate, visual after 72 hrs.
Test [2] has as its system Monographella nivalis (syn. Microdochium nivale, Fusarium nivale). As to the kind of experiment: Monographella nivalis (snow mould, foot rot of cereals), PDB microtiter plate, visual after 72 hrs.
For test [3], the system named is Septoria tritici. As to the kind of experiment: Septoria tritici (leaf blotch), PDB microtiter plate, visual after 72 hrs. Conditions: single compound.
Setting [4] is: applied alone, rate 0.15625 ppm.
Where [5] appears, read: Monographella nivalis, applied alone, rate 0.3125 ppm.
The mark [6] stands for this setting: Monographella nivalis, applied alone, rate 0.625 ppm.
Where [7] appears, read: Monographella nivalis, applied alone, rate 1.25 ppm.
[8] abbreviates: Monographella nivalis, applied alone, rate 2.5 ppm.
The mark [9] stands for this setting: Monographella nivalis, single compound, rate 5 ppm.
[10] abbreviates: Botrytis cinerea, alone, rate 0.625 ppm.
[11] abbreviates: Botrytis cinerea, alone, rate 1.25 ppm.
Setting [12] is: Botrytis cinerea, alone, rate 2.5 ppm, read-out: Activity (%).
[13] abbreviates: Botrytis cinerea, alone, rate 5 ppm, read-out: Activity (%).
Setting [14] is: Botrytis cinerea, alone, rate 10 ppm, read-out: Activity (%).
Where [15] appears, read: Monographella nivalis, applied alone, 2.5 ppm.
The mark [16] stands for this setting: Monographella nivalis, applied alone, 5 ppm.

Like-named read-outs stand apart in the source and are kept apart here.

Regarding `O=C(O)COc1ccc(Cl)cc1Cl` [2,4-D], the “Activity (%)” value in test [1] (alone, rate 2.5 ppm) stood at 0%; in test [1] (alone, rate 5 ppm) it was 0%; in test [1] (alone, rate 10 ppm) it was 0%; in test [2] (applied alone, 0.625 ppm), 0%; in test [2] (applied alone, 1.25 ppm), 0%; in test [2] (applied alone, 2.5 ppm), 0%. The “Activity (%)” value in test [2] (applied alone, 5 ppm) came to 0%; in test [2] (applied alone, 10 ppm) it was 0%; in test [2] (applied alone, rate 0.3125 ppm), 0%; in test [2] (applied alone, rate 0.625 ppm) it was 0%; in test [2] (applied alone, rate 1.25 ppm) it was 0%; in test [2] (applied alone, rate 2.5 ppm) it was 0%.

With `CON(C(=O)c1cn(C)nc1C(F)F)C(C)Cc1c(Cl)cc(Cl)cc1Cl` (stereo not drawn) [(VI), 3-(difluoromethyl)-N-methoxy-1-methyl-N-[1-methyl-2-(2,4,6-trichlorophenyl)ethyl]-1H-pyrazole-4-carboxamide, reference compound], in test [1] (Botrytis cinerea, alone, rate 0.0078125 ppm), the inhibition at 0.0078125 ppm came out at 20%. Also, the inhibition at 0.015625 ppm in test [1] (Botrytis cinerea, alone, rate 0.015625 ppm) was 50%. Further, the inhibition at 0.03125 ppm in test [1] (Botrytis cinerea, alone, rate 0.03125 ppm, read-out: Activity (%)) turned out to be 70%. Moreover, the inhibition at 0.0625 ppm stood at 70% in test [1] (Botrytis cinerea, alone, rate 0.0625 ppm, read-out: Activity (%)) and 0% in test [2] (Monographella nivalis, applied alone, 0.0625 ppm). The compound also yielded an inhibition at 0.125 ppm in test [2] (Monographella nivalis, applied alone, 0.125 ppm) of 50%.

For `CO/C=C(/C(=O)OC)c1ccccc1Oc1cc(Oc2ccccc2C#N)ncn1` [Azoxystrobin], the “Activity (%)” value in test [1] (alone, rate 0.025 ppm) is 0%; in test [1] (alone, rate 0.05 ppm), 0%; in test [1] (alone, rate 0.1 ppm) it was 0%; in test [1] (alone, rate 0.125 ppm), 0%; in test [1] (alone, rate 0.2 ppm), 20%; in test [1] (alone, rate 0.25 ppm) it was 20%. The “Activity (%)” value in test [2] (applied alone, 0.00625 ppm) turned out to be 50%; in test [2] (applied alone, rate 0.0015625 ppm), 0%; in test [2] (applied alone, rate 0.003125 ppm), 20%; in test [2] (applied alone, rate 0.00625 ppm), 70%.

As for `COCCOCc1nc(C(F)(F)F)ccc1C(=O)C1=C(O)C2CCC(C2)C1=O` (stereo not drawn) [Bicyclopyrone], the “Activity (%)” value in test [1] (alone, rate 1.25 ppm) was found to be 0%; in test [1] (alone, rate 2.5 ppm) it was 0%; in test [1] (alone, rate 5 ppm) it was 0%; in test [2] (applied alone, rate 0.078125 ppm), 0%; in test [2] (setting [4]), 0%; in test [2] (applied alone, rate 0.3125 ppm), 0%.

On to `[Cu+2].[OH-].[OH-]` [Copper hydroxide], for which the “Activity (%)” value is 0% in test [1] (alone, rate 1.25 ppm); 0% in test [1] (alone, rate 2.5 ppm); 0% in test [1] (alone, rate 5 ppm); 0% in test [2] (setting [4]); 0% in test [2] (applied alone, rate 0.3125 ppm); 0% in test [2] (applied alone, rate 0.625 ppm). Besides, the “Activity (%)” value in test [2] (applied alone, rate 1.25 ppm) amounted to 0%; in test [2] (applied alone, rate 2.5 ppm), 0%; in test [2] (applied alone, rate 5 ppm) it was 0%.

With `O=C(NCCc1ncc(C(F)(F)F)cc1Cl)c1ccccc1C(F)(F)F` [Fluopyram], the inhibition at 0.125 ppm in test [3] (Zymoseptoria tritici, 0.125 ppm) turned out to be 0%. The inhibition at 0.25 ppm in test [3] (Zymoseptoria tritici, 0.25 ppm, read-out: Activity (%)) stood at 50%.

For `Cn1cc(C(=O)Nc2ccccc2-c2cc(F)c(F)c(F)c2)c(C(F)F)n1` [Fluxapyroxad], the “Activity (%)” value in test [1] (alone, rate 0.015625 ppm) amounted to 20%; in test [1] (alone, rate 0.0625 ppm), 50%; in test [1] (alone, rate 0.125 ppm) it was 70%; in test [3] (0.015625 ppm), 0%; in test [3] (0.03125 ppm) it was 0%; in test [3] (0.0625 ppm), 20%.

Regarding `CP(=O)(O)CCC(N)C(=O)O` (stereo not drawn) [Glufosinate], the inhibition at 2.5 ppm in test [1] (Botrytis cinerea, read-out: Activity (%), alone, rate 2.5 ppm) was 0%; in test [2] (setting [8]), 0%. For the same compound, the inhibition at 5 ppm was 0% in test [1] (Botrytis cinerea, read-out: Activity (%), alone, rate 5 ppm) and 0% in test [2] (setting [9]). In test [1] (Botrytis cinerea, read-out: Activity (%), alone, rate 10 ppm), the inhibition at 10 ppm was found to be 0%. The inhibition at 20 ppm in test [1] (Botrytis cinerea, read-out: Activity (%), alone, rate 20 ppm) worked out at 0%. The compound further showed an inhibition at 0.3125 ppm in test [2] (setting [5]) of 0%. Besides, in test [2] (setting [6]), the inhibition at 0.625 ppm was determined as 0%. The compound also gave an inhibition at 1.25 ppm in test [2] (setting [7]) of 0%.

Turning to `CC(C)C1C2CCC1c1c(NC(=O)c3cn(C)nc3C(F)F)cccc12` (stereo not drawn) [Isopyrazam], the entries for the “Activity (%)” value in test [3] (0.015625 ppm) and in test [3] (0.03125 ppm) were 0% and 20%, respectively.

As for `CS(=O)(=O)c1ccc(C(=O)C2C(=O)CCCC2=O)c([N+](=O)[O-])c1` [Mesotrione], the inhibition at 0.625 ppm in test [1] (setting [10]) and in test [2] (setting [6]) was 0% throughout. Also, the inhibition at 1.25 ppm in test [1] (setting [11]) and in test [2] (setting [7]) was 0% each time. In addition, the inhibition at 2.5 ppm in test [1] (setting [12]), in test [2] (setting [15]) and in test [2] (setting [8]) was 0% each time. For the same compound, the inhibition at 5 ppm in test [1] (setting [13]), in test [2] (setting [16]) and in test [2] (setting [9]) was 0% throughout. The inhibition at 10 ppm in test [1] (setting [14]) worked out at 0%; in test [2] (Monographella nivalis, single compound, rate 10 ppm) it was 0%. In addition, the inhibition at 0.078125 ppm in test [2] (Monographella nivalis, applied alone, rate 0.078125 ppm) is 0%. For the same compound, the inhibition at 0.15625 ppm in test [2] (Monographella nivalis, applied alone, rate 0.15625 ppm) worked out at 0%. Moreover, the inhibition at 0.3125 ppm in test [2] (setting [5]) is 0%. For the same compound, the inhibition at 20 ppm in test [2] (Monographella nivalis, single compound, rate 20 ppm) was 0%.

Take `Cc1nn(C)c(F)c1C(=O)Nc1ccccc1C(C)CC(C)C` (stereo not drawn) [Penflufen]: the “Activity (%)” value in test [2] (applied alone, 0.5 ppm) was found to be 0%; in test [2] (applied alone, 1 ppm), 20%; in test [2] (applied alone, rate 0.5 ppm) it was 0%; in test [2] (applied alone, rate 1 ppm) it was 20%; in test [3] (0.125 ppm), 0%; in test [3] (0.25 ppm), 20%. Also, in test [3] (0.5 ppm), the “Activity (%)” value stood at 70%.

On to `CO/C=C(/C(=O)OC)c1ccccc1COc1cccc(C(F)(F)F)n1` [Picoxystrobin], for which the “Activity (%)” value in test [1] (alone, rate 0.25 ppm) was 50%; in test [1] (alone, rate 0.5 ppm) it was 50%; in test [1] (alone, rate 1 ppm), 50%; in test [1] (alone, rate 2 ppm) it was 50%; in test [3] (0.015625 ppm) it was 70%; in test [3] (0.03125 ppm), 90%.

In turn, `COC(=O)N(OC)c1ccccc1COc1ccn(-c2ccc(Cl)cc2)n1` [Pyraclostrobin] yielded an inhibition at 0.025 ppm in test [1] (Botrytis cinerea, alone, rate 0.025 ppm) of 0%. In addition, the inhibition at 0.05 ppm in test [1] (Botrytis cinerea, alone, rate 0.05 ppm) was found to be 0%. For the same compound, in test [1] (Botrytis cinerea, alone, rate 0.1 ppm), the inhibition at 0.1 ppm was determined as 0%. In addition, the inhibition at 0.2 ppm in test [1] (Botrytis cinerea, alone, rate 0.2 ppm) was 20%. The same compound yielded an inhibition at 0.25 ppm in test [1] (Botrytis cinerea, alone, rate 0.25 ppm) of 50%. In test [1] (Botrytis cinerea, alone, rate 2 ppm), this compound returned an inhibition at 2 ppm of 70%. In test [2] (Monographella nivalis, applied alone, rate 0.0015625 ppm), this compound came in with an inhibition at 0.0015625 ppm of 0%. Further, the inhibition at 0.003125 ppm in test [2] (Monographella nivalis, applied alone, rate 0.003125 ppm) stood at 0%. This compound gave an inhibition at 0.00625 ppm in test [2] (Monographella nivalis, single compound, rate 0.00625 ppm) of 0%. The same compound returned an inhibition at 0.0125 ppm in test [2] (Monographella nivalis, single compound, rate 0.0125 ppm) of 50%.

Turning to `CN1COCN(Cc2cnc(Cl)s2)/C1=N\[N+](=O)[O-]` [Thiamethoxam], the inhibition at 0.625 ppm in test [1] (setting [10]) and in test [2] (setting [6]) was 0% in each case. For the same compound, in test [1] (setting [11]), the inhibition at 1.25 ppm was 0%. The inhibition at 2.5 ppm in test [1] (setting [12]) and in test [2] (setting [8]) was 0% in each case. In test [2] (setting [5]), this compound came in with an inhibition at 0.3125 ppm of 0%. In test [2] (Monographella nivalis, applied alone, rate 5 ppm), this compound showed an inhibition at 5 ppm of 0%.

As for `CCOC(=O)C1CC(=O)C(=C(O)C2CC2)C(=O)C1` (stereo not drawn) [Trinexapacethyl], the inhibition at 1.25 ppm in test [1] (setting [11]) was found to be 0%; in test [2] (Monographella nivalis, applied alone, 1.25 ppm) it was 0%; in test [2] (setting [7]) it was 0%. The inhibition at 2.5 ppm in test [1] (setting [12]), in test [2] (setting [15]) and in test [2] (setting [8]) was 0% each time. For the same compound, the inhibition at 5 ppm in test [1] (setting [13]) and in test [2] (setting [16]) was 0% throughout. Besides, the inhibition at 10 ppm in test [1] (setting [14]) was determined as 0%. Moreover, in test [1] (Botrytis cinerea, alone, rate 20 ppm, read-out: Activity (%)), the inhibition at 20 ppm came out at 0%. The inhibition at 0.625 ppm came to 0% in test [2] (Monographella nivalis, applied alone, 0.625 ppm) and 0% in test [2] (setting [6]). Also, in test [2] (Monographella nivalis, applied alone, rate 0.12625 ppm), the inhibition at 0.12625 ppm came to 0%. The compound also yielded an inhibition at 0.3125 ppm in test [2] (setting [5]) of 0%.

As for `CC/C=C\CC1=C(C)CCC1=O` [cis-Jasmone], the “Activity (%)” value in test [1] (alone, rate 0.625 ppm) was found to be 0%; in test [1] (alone, rate 1.25 ppm) it was 0%; in test [1] (alone, rate 2.5 ppm), 0%; in test [1] (alone, rate 5 ppm), 0%; in test [2] (applied alone, 0.625 ppm), 0%; in test [2] (applied alone, 1.25 ppm) it was 0%. Also, the “Activity (%)” value was determined as 0% in test [2] (applied alone, 2.5 ppm); 0% in test [2] (applied alone, 5 ppm); 0% in test [2] (setting [4]); 0% in test [2] (applied alone, rate 0.3125 ppm); 0% in test [2] (applied alone, rate 0.625 ppm); 0% in test [2] (applied alone, rate 1.25 ppm).

Consider Abamectin, for which the “Activity (%)” value in test [1] (alone, rate 1.25 ppm) was 0%; in test [1] (alone, rate 2.5 ppm) it was 0%; in test [1] (alone, rate 5 ppm), 0%; in test [1] (alone, rate 10 ppm) it was 0%; in test [1] (alone, rate 20 ppm), 0%; in test [2] (applied alone, 5 ppm), 0%. In addition, the “Activity (%)” value in test [2] (applied alone, 10 ppm) was 0%; in test [2] (applied alone, 20 ppm), 50%; in test [2] (setting [4]) it was 0%; in test [2] (applied alone, rate 0.3125 ppm), 0%; in test [2] (applied alone, rate 0.625 ppm), 0%; in test [2] (applied alone, rate 1.25 ppm), 0%. In test [2] (applied alone, rate 2.5 ppm), the “Activity (%)” value was 0%.

(Values after patent US9326513B2, “Fungicidal compositions” (Syngenta Participations AG, priority 2011, dated 2016).)
